Columns and labels:
[1] = system: rabbit eyes; assay: Local action of the drugs on the eyes (irritation, congestion, redness, lacrimation); type: in vivo, rabbit (male New Zealand albino); conditions: for ocular irritation: 1% and 2.5%, both eyes, rabbits
[2] = In vivo distribution-metabolism in ocular tissues of rabbits; conditions: rabbit, topical or ocular, 1 %
Description: (§1) Adult male New Zealand albino rabbits weighing 2.5-3.5 kg were used. Standard doses of 100 μl of 1% solution of the drugs in saline solution were administered topically to both eyes of each rabbit. After appropriate time intervals (30, 60 and 120 minutes), the animals were sacrificed. Aqueous humor was obtained by making a single puncture at the limbus using a 25 g×5/8" needle attached to 1 cm^3 syringe. Then the cornea and the iris-ciliary body were isolated. The tissues were pooled and homogenized using a Tekmar SDT tissuemizer in ice cold perchloric acid (0.05M) which contained 0.05% sodium metabisulfite as antioxidant. Samples were then rehomogenized in CH3 OH to prepare 10% homogenates, transferred to micro-filters and centrifuged for 20 minutes at 10000 r/minute to precipitate proteins. Aqueous humor was analyzed as such without any further dilution. Aliquots of 5-20 μl of the 10% tissue homogenate samples were analyzed by HPLC.

[3] = system: ocular tissues of rabbits; assay: as above; conditions: for Concentration of propranolol: after topical propranolol.HCl 1a 1%
Description: as §1

[4] = in vivo
Description: A group of seven adult male Sprague-Dawley rats weighing 150-250 g was used. […] After 1, 3, 5, 20, 40 and 60 minutes, one mL of blood was withdrawn from the jugular vein and dropped immediately into a tared tube containing 1 mL of ice-cold acetonitrile. The tubes were vigorously shaken, centrifuged, decanted and analyzed for propranolol 1a and propranolone oxime 5a by HPLC. Quantitation was done by using a calibration curve obtained by addition of known amounts of propranolol oxime HCl 6a to blood obtained from a control rat pretreated with saline solution.
A high pressure liquid chromatography (HPLC) method was developed for the assay of the β-blockers and their ketoxime analogs in biological fluids. […] An ASI reverse phase chrompack C18 column, operated at ambient temperature, was used for all separation. The mobile phase used for separation of propranolol 1a and propranolone oxime 5a consisted of water (90 mL), 1-heptanesulfonic acid (1g), 0.1M acetic acid (10 mL), 0.1M triethanolamine (100 mL) and methanol (799 mL).

[5] = Spontaneous isomerization of HCl salts of oximes (I'); type: physicochemical; conditions: HCl salts in solution
From the text: Spontaneous isomerization of HCl salts of compounds of formula (I') was also observed in solution; it was not observed in oxalates or bases of (I'). […] Acid-catalyzed isomerization was in most cases found to result in formation of the opposite isomers in solutions and in suspensions, respectively. In suspension, clearly the less soluble isomer is forming.

[6] = system: rabbit iris-ciliary body; assay: Reduction of ketone in the iris-ciliary body; type: in vivo; conditions: 0.5% hydrochloride salt (w/v); 1.0 hour after instillation
Description: It was then shown that reduction of 1-(isopropylamino)-3-(1-naphthyloxy)-2-propanone takes place in the iris-ciliary body. The compound was administered to the rabbit eye in propylene glycol/ethanol/pH=5.9 ophthalmic buffer (25:25:50 mixture, v/v) solution (concentration 0.5% hydrochloride salt, w/v). The iris-ciliary body was removed, extracted and analyzed 1.0 hour after the instillation of the compound, as described in the preceding paragraph.

[7] = system: resting heart rate of rats; assay: Effect on resting heart rate in rats; type: in vivo, rat (male Sprague-Dawley); conditions: 6 mg/kg i.v. (Example 6)
Description: (§2) Groups of seven male Sprague-Dawley rats weighing 150-250 g were used. Each animal was anesthetized with sodium pentobarbital (50 mg/kg) and the jugular vein was cannulated with PE50 tubing. This cannula was subcutaneously threaded around the neck and exteriorized dorsally. The cannula was filled with heparin solution ([…]) and sealed with a solid 22-gauge stylet. Animals were housed in individual stainless steel cages and at least 24 hours were allowed for recovery from the surgery. Food and water were provided ad libitum. On the day of the experiment, the heart rate of each rat was monitored with a plethsmograph and the data recorded on a Physioscribe II recorder. One hour was allowed as an equilibration period before any drugs were administered. Drugs were dissolved in normal saline as 0.3% solution and were administered intravenously at a dose of 6 mg/kg. The resting heart rate was then recorded after 1, 3, 5, 10 and 15 minutes following i.v. injection. […] A control group of seven animals was intravenously administered saline solution and was treated exactly in the same manner as the drug-treated groups. The significance of the difference between the effect of saline solution and the drugs under investigation on the resting heart rate and on isoprenaline tachycardia was analyzed using the student's "t" test. Values are given as mean ±S.E. of the mean. […] (.) carteolol HCl, 1c; .circle. propranolone ketoxime HCl, 6a; (.gradient.) timolone ketoxime oxalate, 6b; (Δ) N-isopropyl timolone ketoxime HCl, 6d; carteolone oxime HCl, 6c; and (---) saline solution. […] Drugs were administered to groups of 5 rats using a stomach tube and the heart rate was recorded for 1 hour. […] A control group of 5 rats was treated exactly in the same manner after the oral administration of the appropriate volume of saline solution.

[8] = system: IOP of rabbits, treated eye; assay: Unilateral administration, IOP of rabbits; type: in vivo, rabbit; conditions: 0.5% and 1.0% solution in saline, one eye
Description: (§3) The animals were kept in individual cages with free access to food and water. Intraocular pressure was measured using a Digilab model 30R pneumatonometer. The pneumatonometer readings were checked at least twice a day using the Digilab calibration verifier. All measurements were obtained from unrestrained, unanesthetized rabbits. One drop of 0.5% propacaine (Ophthetic-Allergen Pharmaceuticals, Inc.) diluted 1:2 with saline was instilled in each eye immediately prior to IOP measurement. Drugs were administered as 1 or 2.5% solution in buffer pH 7.4 or in saline in both eyes of a group of at least four rabbits. Another group of at least three rabbits served as control and was administered the carrier only. IOP was recorded after 30 and 60 minutes and then after 2, 3, 4, 6 and 8 hours following the drug or carrier administration. Values are given as means ± standard error (S.E.) of the mean. The significance of the change was determined using the student's t-test.
The unilateral administration of propranolol oxime hydrochloride 6a was subsequently studied at two different concentrations, 0.5% and 1.0%. Drugs were administered as 0.5% or 1.0% solution in saline in one of the eyes of each animal in a group of five rabbits. The untreated eye of each rabbit served as a control and received vehicle only. IOP was recorded as described above. […]

[9] = system: rabbit cornea (intraocular enzymes); type: in vivo; conditions: rabbit, in vivo
Description: The tissue was homogenized in an alkaline buffer (pH 10.0) to give 10% (w/v) homogenate, and extracted twice with equal volumes of methylene chloride/diethyl ether mixture (1:4, v/v) by shaking for 15 minutes. The organic layer was separated, then re-extractedwith an equal volume of aqueous 0.1M hydrochloric acid solution. The aqueous phase was made alkaline (pH 10.0) and extracted with methylene chloride/diethyl ether, the organic layer was transferred to a deactivated glass vial, and the solvent was evaporated at reduced pressure under nitrogen stream. The residue was dissolved in 0.01M hydrochloric acid solution and analyzed by high-performance liquid chromatography (HPLC). A Supelcosil LC-8-DB analytical column (7.5 cm×4.6 mm i.d., 3 μm particle size) and mobile phase (1.5 mL/min flow rate) consisting of 30% acetonitrile in an aqueous buffer solution of 0.02M monobasic potassium phosphate (adjusted to pH 3.0 with phosphoric acid) and 0.01 (v/v) triethylamine. UV detection at 280 nm was applied. […] The same experiment was carried out by administering 1-(isopropylamino)-3-(2-allylphenoxy)-2-propanone oxime hydrochloride salt in 2% (w/v) aqueous solution. […]

[10] = system: Intraocular Pressure (IOP) of Rabbits; assay: Effect on the Intraocular Pressure (IOP) of Rabbits; type: in vivo, rabbit (male New Zealand albino)
Description: as §3, with “IOP was recorded after 30 and 60 minutes and then after 2, 3, 4, 6 and 8 hours following the drug or carrier administration.” left out

[11] = system: isoprenaline-induced tachycardia; assay: Effect on isoprenaline-induced tachycardia in rats (β-adrenergic antagonist activity); type: in vivo, rat (male Sprague-Dawley); conditions: rats; 6 mg/kg i.v.; isoprenaline 50 μg/kg s.c.; FIG. 1
Description: as §2

[12] = aqueous humor, Concentration of propranolol
[13] = aqueous humor, Tissue concentration
[14] = cornea, Concentration of propranolol
[15] = iris-ciliary body, Tissue concentration

## CC(C)NCC(O)COc1cccc2ccccc12 (stereo not shown) [Propranolol 1a, 1-(isopropylamino)-3-(1-naphthyloxy)-2-propanol]
[1]
  ocular irritation: ocular irritation which always accompanied propranolol administration at both dose levels
[2]; [12]
  concentration at 0.5 h: 1280 ± 190 ng/g
  concentration at 1 h: 260 ± 80 ng/g
[2]; [13]
  concentration at 0.5 h: 40 ± 20 ng/g
  concentration at 1 h: 710 ± 110 ng/g
[2]; [14]
  concentration at 0.5 h: 47100 ± 5570 ng/g
  concentration at 1 h: 14500 ± 2970 ng/g
[2]; cornea, Tissue concentration
  concentration at 0.5 h: 1680 ± 750 ng/g
  concentration at 1 h: 1140 ± 290 ng/g
  concentration at 2 h: 1140 ± 220 ng/g
[2]; iris-ciliary body, Concentration of propranolol
  concentration at 0.5 h: 8050 ± 1470 ng/g
[2]; [15]
  concentration at 0.5 h: 2110 ± 290 ng/g
  concentration at 1 h: 1790 ± 200 ng/g
  concentration at 2 h: 430 ± 110 ng/g
[3]; aqueous humor, 120 min.
  Concentration of propranolol: 0.00 ± 0.00 mcg/g tissue
[3]; cornea, 120 min.
  Concentration of propranolol: 0.00 ± 0.00 mcg/g tissue
[3]; iris-ciliary body, 60 min.
  Concentration of propranolol: 0.00 ± 0.00 mcg/g tissue
[3]; iris-ciliary body, 120 min.
  Concentration of propranolol: 0.00 ± 0.00 mcg/g tissue
[3]; after topical propranolone oxime HCl 6a 1%, aqueous humor, 120 min.
  Tissue concentration: 0.00 ± 0.00 mcg/g tissue
[3]; rabbit, in vivo
  detection of propranolol in eye compartments: could be detected in measurable concentrations in the different eye compartments for the first two hours
  detection of propranolol in eye tissues: could not be detected in any of the tested eye tissues
  detection of propranolol in iris-ciliary body: completely disappeared from the iris-ciliary body
[4]
  detection of propranolol in rat's blood: not detected in rat's blood

## Cc1ccc(Cl)c(OCC(CNC(C)(C)C)=NO)c1 [Il]
[5]
  spontaneous isomerization: no isomerization of Il was observed

## CC(C)NCC(=O)COc1cccc2ccccc12 [1-(isopropylamino)-3-(1-naphthyloxy)-2-propanone]
[6]
  enzymatic reduction product in iris-ciliary body: The enzymatic reduction product, 1-(isopropylamino)-3-(1-naphthyloxy)-2-propanol, i.e. propranolol, was clearly identified

## CC(C)NCC(COc1cccc2ccccc12)=NO.Cl [Propranolone oxime HCl 6a, 1-(Isopropylamino)-3-(1-naphthyloxy)-2-propanone oxime hydrochloride]
[7]
  activity on resting heart rate (negative chronotropic action): highest activity
[8]
  decrease in IOP, unilateral administration: Significant decrease in the IOP was observed at both levels, only in the treated eye
[1]; 0.5% and 1.0% solution in saline, one eye
  irritant action, unilateral administration: No irritant action was noted
[1]
  ocular irritation: completely devoid of the ocular irritation
[9]
  metabolites identified in cornea: Peaks were identified as the E- and Z-isomers of the ketoxime administered, as the corresponding ketone 1-(isopropylamino)-3-(naphthyloxy)-2-propanone, and as the β-adrenergic antagonist 1-(isopropylamino)-3-(naphthyloxy)-2-propanol(propranol)
[10]; 1% solution, 30 min.
  % change after treatment (IOP): -3.23%
  IOP, treated: 26.9 ± 0.58 mm/Hg
[10]; 1% solution, 60 min.
  % change after treatment (IOP): -11.51%
  IOP, treated: 24.0 ± 0.60 mm/Hg
[10]; 1% solution, 2 hrs.
  % change after treatment (IOP): -15.82%
  IOP, treated: 23.4 ± 0.51 mm/Hg
[10]; 1% solution, 3 hrs.
  % change after treatment (IOP): -16.18%
  IOP, treated: 23.3 ± 0.35 mm/Hg
[10]; 1% solution, 4 hrs.
  % change after treatment (IOP): -20.14%
  IOP, treated: 22.2 ± 0.42 mm/Hg
[10]; 1% solution, 6 hrs.
  % change after treatment (IOP): -7.08%
  IOP, treated: 25.8 ± 0.56 mm/Hg
[10]; 1% solution, 8 hrs.
  % change after treatment (IOP): +0.50%
  IOP, treated: 27.9 ± 0.62 mm/Hg
[10]; 1% solution, time zero
  % change after treatment (IOP): 0.00%
  IOP, treated: 27.8 ± 0.62 mm/Hg
[10]; 2.5% solution, 30 min.
  % change after treatment (IOP): +1.92%
  IOP, treated: 26.5 ± 0.63 mm/Hg
[10]; 2.5% solution, 60 min.
  % change after treatment (IOP): -10.00%
  IOP, treated: 23.4 ± 0.55 mm/Hg
[10]; 2.5% solution, 2 hrs.
  % change after treatment (IOP): -13.08%
  IOP, treated: 22.6 ± 0.43 mm/Hg
[10]; 2.5% solution, 3 hrs.
  % change after treatment (IOP): -18.46%
  IOP, treated: 21.2 ± 0.28 mm/Hg
[10]; 2.5% solution, 4 hrs.
  IOP, treated: 20.4 ± 0.34 mm/Hg
[10]; 2.5% solution, 6 hrs.
  % change after treatment (IOP): -9.23%
  IOP, treated: 23.6 ± 0.48 mm/Hg
[10]; 2.5% solution, 8 hrs.
  % change after treatment (IOP): -0.77%
  IOP, treated: 25.8 ± 0.65 mm/Hg
[10]; 2.5% solution, time zero
  % change after treatment (IOP): 0.00%
  IOP, treated: 26.0 ± 0.48 mm/Hg
[10]; same dose levels, rabbits
  ocular hypotensive activity compared with parent β-blocker: much more pronounced and prolonged than that of propranolol itself
[10]; topical, rabbits, dose levels used
  ocular hypotensive activity (in words): has shown the highest activity at both tested concentration levels, 1 and 2.5%
[11]
  β-adrenergic antagonist activity against isoprenaline-tachycardia: most effective
